Measurements published in publication PMC12412615, “Tailored SirReal-type inhibitors enhance SIRT2 inhibition through ligand stabilization and disruption of NAD^+ co-factor binding” (RSC Medicinal Chemistry, 2025).

Columns and labels:
SIRT2 [1] = molecular target: T1, SIRT2 (Homo sapiens, UniProt Q8IXJ6); test: Fluorescence thermal shift assay of SIRT2
T1 sequence (Q8IXJ6 1-389): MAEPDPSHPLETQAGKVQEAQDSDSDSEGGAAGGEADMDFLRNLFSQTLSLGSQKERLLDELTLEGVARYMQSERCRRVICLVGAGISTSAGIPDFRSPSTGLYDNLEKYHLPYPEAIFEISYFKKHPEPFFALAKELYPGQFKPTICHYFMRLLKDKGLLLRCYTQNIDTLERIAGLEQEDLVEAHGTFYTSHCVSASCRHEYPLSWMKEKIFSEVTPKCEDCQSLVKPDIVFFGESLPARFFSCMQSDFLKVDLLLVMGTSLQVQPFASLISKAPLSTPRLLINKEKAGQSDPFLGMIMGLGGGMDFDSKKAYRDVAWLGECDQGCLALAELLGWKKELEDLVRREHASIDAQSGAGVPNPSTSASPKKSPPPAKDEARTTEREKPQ
Protocol: The thermal stability of SIRT2 was determined in the presence of 10 μM and 30 μM inhibitor and in the presence and absence of 2.5 mM co-factor NAD^+.
All melting temperature shifts measured were referenced to the melting temperature of SIRT2 without inhibitor, also in the presence and absence of the co-factor.
Fluorescence thermal shift assays were performed in white 96-well plates (Hard-Shell PCR Plates, BioRad, USA) with a total volume of 20 μL per well and a final DMSO concentration of 5% (v/v), following a published protocol.[19,21] […] The compounds were prepared as 10 mM stock solutions in DMSO and diluted in the assay such that a final DMSO concentration of 5% (v/v) was achieved. If necessary, NAD^+ was added to a final concentration of 2.5 mM. […] Melting temperatures were determined using GraphPad Prism, following a published procedure.[52]

SIRT2 [2] = molecular target: T1, SIRT2; test: Fluorescence-based SIRT2 deacetylation inhibition assay (Reaction Biology Corporation); assay type: biochemical; set-up: purchased Reaction Biology Corporation (Malvern, USA), contract assay
Protocol: The determination of SIRT2 inhibitory activity was performed by Reaction Biology Corporation (Malvern, USA) with a fluorescence-based assay utilizing the fluorogenic peptide of p53 residues 379–382 (RHKK(Ac)-Fl). […]. […] […]. On the contrary, we observed a significant increase in potency by the introduction of halogens at the R^2 position (compounds 29–31), highlighting the importance of the position of the functional group modifications. […]. […] Additional factors such as the atomic radius and thus steric requirements of these halogens may also play a significant role in the increase in potency, where the smaller chlorine atom may experience less steric effects upon binding at the active site compared to the larger bromine and iodine atoms. […]. […] IC50 values against SIRT2 are given as mean with standard deviations (n = 3). Inhibition percentages at 50 μM for SIRT1, 3 and 5 are given as mean without standard deviations (n = 2)
The determination of inhibitory activity on the corresponding sirtuin enzymes was carried out based on a fluorescence-based assay commissioned by Reaction Biology Corporation (Malvern, USA) following an internal experimental protocol. Test substances were prepared in DMSO, delivered into the respective enzyme mixture (prepared with reaction buffer: Tris-HCl, pH = 8) and incubated for 10 minutes at 30 °C. Subsequently the substrate mixture (NAD^+ and a 7-amino-4-methylcoumarin-based fluorogenic peptide substrate) was added to initiate the deacetylation reaction. After 2 hours incubation at 30 °C, 2 mM nicotinamide (universal sirtuin inhibitor, to stop the reaction) and protease-based developer (to generate fluorescence by the cleavage of 7-amino-4-methylcoumarin) was added. At 30 °C 1 hour later, the respective fluorescence was measured (extinction/emission = 360 nm/460 nm). The inhibitory effect of the test compounds is indirectly proportional to the amount of converted fluorescent substrate standardized as 100% activity of the control without inhibitor. The test substances were tested in 10-dose IC50 triplicate mode, with 3-fold serial dilution starting at 50 μM final reaction concentration and if necessary, starting at 100 μM. For each serially diluted replicate of the triplicate, an IC50 value was determined by sigmoidal curve fitting, resulting in three IC50 values, from which the mean and corresponding standard deviation were subsequently calculated. Data processing was performed based on Prism 8.0.2 software (GraphPad Software, Boston, USA). Subtype selectivity on SIRT1, SIRT3 and SIRT5 was evaluated in a single dose duplicate mode at 50 μM final test compound concentration according to previous outlined internal protocol of Reaction Biology Corporation by determining the enzyme activity of the respective sirtuins in % (no inhibitor control as 100% activity).

- ΔTm at 30 µM (SIRT2 [1]; read-out: ΔT, increase in the melting temperature of SIRT2): 6.5 °C
- Fold increase in SIRT2 potency compared to lead structure (SIRT2 [2]; 29 vs 24a, 46 vs SirReal2): 3 fold
- IC50 (SIRT2 [2]; fluorogenic peptide of p53 residues 379–382 (RHKK(Ac)-Fl), mean with standard deviation, n = 3): 26 ± 2 nM
Structure (SMILES): Cc1cc(C)nc(SCC(=O)Nc2cccc(COc3ccc(NC(=O)c4cnn(C)c4)c(Cl)c3)c2)n1 [Compound 29, N-(2-Chloro-4-((3-(2-((4,6-dimethylpyrimidin-2-yl)thio)acetamido)benzyl)oxy)phenyl)-1-methyl-1H-pyrazole-4-carboxamide]
- NAD+ dependency of inhibitor-induced SIRT2 melting temperature increase (SIRT2 [1]; presence and absence of 2.5 mM NAD+): increases the melting temperature of SIRT2 independently of NAD^+
